Reference: patent US6867185B2 (Bristol-Myers Squibb Company, priority 2001, dated 2005)
Counter-ions that a name gives are not always drawn.

Key:
[1] = biological target: T1, HCV NS3/4A protease complex, BMS strain (genotype 1a) (Hepatitis C virus genotype 1a, UniProt P27958, C1454S/C1711G); experiment: Recombinant HCV NS3/4A protease complex FRET peptide assay (BMS strain); format: biochemical; settings: IC50, HCV NS3/4A protease FRET assay in vitro; IC50 ranges
T1 construct: recombinant HCV NS3/4A protease complex (amino'acids 1027 to 1711); inferred from the pET21b vector and Ni-NTA purification; made in house; host or cells: Escherichia coli BL21 (DE3), pET21b
T1 sequence (P27958 1027-1711 C1454S/C1711G, one chain of several): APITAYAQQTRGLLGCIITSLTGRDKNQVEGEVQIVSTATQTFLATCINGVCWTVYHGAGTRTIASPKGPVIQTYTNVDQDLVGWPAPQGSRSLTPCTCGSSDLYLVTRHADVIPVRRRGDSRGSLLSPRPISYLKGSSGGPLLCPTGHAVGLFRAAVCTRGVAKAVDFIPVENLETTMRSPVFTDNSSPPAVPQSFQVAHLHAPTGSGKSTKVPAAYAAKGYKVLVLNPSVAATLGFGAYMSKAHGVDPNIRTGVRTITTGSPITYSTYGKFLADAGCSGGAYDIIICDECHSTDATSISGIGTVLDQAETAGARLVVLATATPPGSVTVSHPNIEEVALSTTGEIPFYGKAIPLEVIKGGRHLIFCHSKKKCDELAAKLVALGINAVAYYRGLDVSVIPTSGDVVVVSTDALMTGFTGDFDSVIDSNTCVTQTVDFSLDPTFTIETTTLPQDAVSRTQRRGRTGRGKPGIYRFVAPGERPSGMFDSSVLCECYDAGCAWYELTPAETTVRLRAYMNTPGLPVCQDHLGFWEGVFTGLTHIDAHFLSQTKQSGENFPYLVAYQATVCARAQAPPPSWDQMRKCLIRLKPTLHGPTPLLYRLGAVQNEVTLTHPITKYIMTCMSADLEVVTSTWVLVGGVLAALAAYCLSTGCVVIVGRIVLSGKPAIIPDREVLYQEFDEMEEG
Description: The purpose of this in vitro assay was to measure the inhibition of HCV NS3 protease complexes, derived from the BMS, H77C or J4L6S strains, as described below, by compounds of the present invention. This assay provides an indication of how effective compounds of the present invention would be in inhibiting HCV proteolytic activity.
Serum from an HCV-infected patient was obtained from Dr. T. Wright, San Francisco Hospital. An engineered full-length cDNA (compliment deoxyribonucleic acid) template of the HCV genome (BMS strain) was constructed from DNA fragments obtained by reverse transcription-PCR (RT-PCR) of serum RNA (ribonucleic acid) and using primers selected on the basis of homology between other genotype 1a strains. From the determination of the entire genome sequence, a genotype 1a was assigned to the HCV isolate according to the classification of Simmonds et al. (See P Simmonds, K A Rose, S Graham, S W Chan, F McOmish, B C Dow, E A Follett, P L Yap and H Marsden, J. Clin. Microbiol., 31 (6), 1493-1503 (1993)). […] The infectious clones, H77C (1a genotype) and J4L6S (1b genotype) were obtained from R. Purcell (N1H) and the sequences are published in Genbank (AAB67036, see Yanagi, M., Purcell, R. H., Emerson, S. U. and Bukh, J. Proc. Natl. Acad. Sci. U.S.A. 94 (16), 8738-8743 (1997); AF054247, see Yanagi, M., St Claire, M., Shapiro, M., Emerson, S. U., Purcell, R. H. and Bukh, J, Virology 244 (1), 161-172. (1998)).
The BMS, H77C and J4L6S strains were used for production of recombinant NS3/4A protease complexes. DNA encoding the recombinant HCV NS3/4A protease complex (amino'acids 1027 to 1711) for these strains were manipulated as described by P. Gallinari et al. (see Gallinari P, Paolini C, Brennan D, Nardi C, Steinkuhler C, De Francesco R. Biochemistry. 38 (17):5620-32, (1999)). Briefly, a three-lysine solubilizing tail was added at the 3′-end of the NS4A coding region. The cysteine in the P1 position of the NS4A-NS4B cleavage site (amino acid 1711) was changed to a glycine to avoid the proteolytic cleavage of the lysine tag. Furthermore, a cysteine to serine mutation was introduced by PCR at amino acid position 1454 to prevent the autolytic cleavage in the NS3 helicase domain. The variant DNA fragment was cloned in the pET21b bacterial expression vector (Novagen)and the NS3/4A complex was expressed in Escherichia. coli strain BL21 (DE3) (Invitrogen) following the protocol described by P. Gallinari et al. (see Gallinari P, Brennan D, Nardi C, Brunetti M, Tomei L, Steinkuhler C, De Francesco R., J. Virol. 72 (8):6758-69 (1998)) with modifications. Briefly, NS3/4A expression was induced with 0.5 mM Isopropyl β-D-1-thiogalactopyranoside (IPTG) for 22 hr at 20° C. A typical fermentation (10L) yielded approximately 80 g of wet cell paste. The cells were resuspended in lysis buffer (10 mL/g) consisting of 25 mM N-(2-Hydroxyethyl)Piperazine-N′-(2-Ethane Sulfonic acid) (HEPES), pH 7.5, 20% glycerol, 500 mM Sodium Chloride (NaCl), 0.5% Triton-X100, 1 ug/ml lysozyme, 5 mM Magnesium Chloride (MgCl2), 1 ug/ml Dnasel, 5 mM β-Mercaptoethanol (OME), Protease inhibitor-Ethylenediamine Tetraacetic acid (EDTA) free (Roche), homogenized and incubated for 20 mins at 4° C. The homogenate was sonicated and clarified by ultra-centrifugation at 235000 g for 1 hr at 4° C. Imidazole was added to the supernatant to a final concentration of 15 mM and the pH adjusted to 8.0. The crude protein extract was loaded on a Nickel-Nitrilotriacetic acid (Ni-NTA) column pre-equilibrated with buffer B (25 mM HEPES, pH 8.0, 20% glycerol, 500 mM NaCl, 0.5% Triton-X100, 15 mM imidazole, 5 mM βME). The sample was loaded at a flow rate of 1 mL/min. The column was washed with 15 column volumes of buffer C (same as buffer B except with 0.2% Triton-X100). The protein was eluted with 5 column volumes of buffer D (same as buffer C except with 200 mM Imidazole). […]

[2] = test system: HCV replicon in Huh7 cells; experiment: HCV replicon cell-based assay (replicon FRET assay); parameters: species or system HCV strain 1B; settings: Hepatitis C virus, Huh-7, HCV replicon cell assay; EC50 ranges
Description: An HCV replicon whole cell system was established as described by Lohmann V, Korner F, Koch J, Herian U, Theilmann L, Bartenschlager R., Science 285 (5424):110-3 (1999). This system enabled us to evaluate the effects of our HCV Protease compounds on HCV RNA replication. Briefly, using the HCV strain 1B sequence described in the Lohmann paper (Assession number:AJ238799), an HCV cDNA was generated encoding the 5′ internal ribosome entry site (IRES), the neomycin resistance gene, the EMCV (encephalomyocarditis viurs)-IRES and the HCV nonstructural proteins, NS3-NS5B, and 3′ non-translated region (NTR). In vitro transcripts of the cDNA were transfected into the human hepatoma cell line, Huh7. […] Resulting cell lines were characterized for positive and negative strand RNA production and protein production over time.
Huh7 cells, constitutively expressing the HCV replicon, were grown in Dulbecco's Modified Eagle Media (DMEM) containing 10% Fetal calf serum (FCS) and 1 mg/ml G418 (Gibco-BRL). Cells were seeded the night before (1.5×10^4 cells/well) in 96-well tissue-culture sterile plates. Compound and no compound controls were prepared in DMEM containing 4% FCS, 1:100 Penicillin/Streptomysin, 1:100 L-glutamine and 5% DMSO in the dilution plate (0.5% DMSO final concentration in the assay). Compound/DMSO mixes were added to the cells and incubated for 4 days at 37° C. After 4 days, plates were rinsed thoroughly with Phosphate-Buffered Saline (PBS) (3 times 150 μl). The cells were lysed with 25 μl of a lysis assay reagent containing the FRET peptide (RET S1, as described for the in vitro enzyme assay). The lysis assay reagent was made from 5× cell Luciferase cell culture lysis reagent(Promega #E153A) diluted to 1× with distilled water, NaCl added to 150 mM final, the FRET peptide diluted to 10 μM final from a 2 mM stock in 100% DMSO. The plate was then placed into the Cytofluor 4000 instrument which had been set to 340 nm excitation/490 emission, automatic mode for 21 cycles and the plate read in a kinetic mode. EC50 determinations were carried out as described for the IC50 determinations.

SMILES: COc1ccc2c(O[C@@H]3C[C@H]4C(=O)N[C@]5(C(=O)NS(=O)(=O)C6CC6)C[C@H]5/C=C\CCCCC[C@@H](NC(=O)OC(C)(C)C)C(=O)N4C3)ccnc2c1 [Compound 12]
- IC50 [1]: < 500 nM
- EC50 [2]: < 500 nM

SMILES: COc1ccc2c(O[C@@H]3C[C@H]4C(=O)N[C@]5(C(=O)NS(=O)(=O)C6CC6)C[C@H]5CCCCCC[C@H](NC(=O)OC(C)(C)C)C(=O)N4C3)cc(-c3ccccc3)nc2c1 [Compound 13, (1S,4R,6R,13S,17R)-[4-Cyclopropanesulfonylaminocarbonyl-17-(7-methoxy-2-phenylquinolin-4-yloxy)-2,14-dioxo-3,15-diazatricyclo[13.3.0.0^4,6]-octadec-13-yl]-carbamic acid tert-butyl ester]
- IC50 [1]: < 50 nM
- EC50 [2]: < 50 nM

SMILES: COc1ccc2c(O[C@@H]3C[C@H]4C(=O)N[C@]5(C(=O)NS(=O)(=O)C6CC6)C[C@H]5CCCCCC[C@H](N)C(=O)N4C3)cc(-c3ccccc3)nc2c1 [Compound 14, (1S,4R,6R,13S,17R)-Cyclopropanesulfonic acid [13-amino-17-(7-methoxy-2-phenylquinolin-4-yloxy)-2,14-dioxo-3,15-diazatricyclo[13.3.0.0^4,6]-octadecane-4-carbonyl]amide dihydrochloride]
- IC50 [1]: < 50 nM
- EC50 [2]: < 50 nM

SMILES: COc1ccc2c(O[C@@H]3C[C@H]4C(=O)N[C@]5(C(=O)NS(=O)(=O)C6CC6)C[C@H]5CCCCCCC[C@H](NC(=O)OC(C)(C)C)C(=O)N4C3)cc(-c3ccccc3)nc2c1 [Compound 15, (1S,4R,6R,14S,18R)-[4-Cyclopropanesulfonylaminocarbonyl-18-(7-methoxy-2-phenylquinolin-4-yloxy)-2,15-dioxo-3,16-diazatricyclo-[14.3.0.0^4,6]nonadec-14-yl]carbamic acid tert-butyl ester]
- IC50 [1]: < 50 nM
- EC50 [2]: < 50 nM

SMILES: COc1ccc2c(O[C@@H]3C[C@H]4C(=O)N[C@]5(C(=O)NS(=O)(=O)C6CC6)C[C@H]5CCCCCCC[C@H](N)C(=O)N4C3)cc(-c3ccccc3)nc2c1 [Compound 16, (1S,4R,6R,14S,18R)-Cyclopropanesulfonic acid [14-amino-18-(7-methoxy-2-phenylquinolin-4-yloxy)-2,15-dioxo-3,16-diazatricyclo[14.3.0.0^4,6]-nonadecane-4-carbonyl]amide dihydrochloride]
- IC50 [1]: < 50 nM
- EC50 [2]: < 50 nM

SMILES: COc1ccc2c(O[C@@H]3C[C@H]4C(=O)N[C@]5(C(=O)NS(=O)(=O)C6CCC6)C[C@H]5/C=C\CCCC[C@H](NC(=O)OC(C)(C)C)C(=O)N4C3)cc(-c3ccccc3)nc2c1 [Compound 17, (1S,4R,6S,13S,17R)-7-cis-[4-Cyclobutanesulfonylaminocarbonyl-17-(7-methoxy-2-phenylquinolin-4-yloxy)-2,14-dioxo-3,15-diazatricyclo[13.3.0.0^4,6]octadec-7-en-13-yl]carbamic acid tert-butyl ester]
- IC50 [1]: < 50 nM
- EC50 [2]: < 500 nM

SMILES: COc1ccc2c(O[C@@H]3C[C@H]4C(=O)N[C@]5(C(=O)NS(=O)(=O)C6CCC6)CC5CCCCCC[C@H](NC(=O)OC(C)(C)C)C(=O)N4C3)cc(-c3ccccc3)nc2c1 (stereo partly drawn) [Compound 18, (1S,4R,6R,13S,17R)-[4-Cyclobutanesulfonylaminocarbonyl-17-(7-methoxy-2-phenylquinolin-4-yloxy)-2,14-dioxo-3,15-diazatricyclo[13.3.0.0^4,6]octa-dec-13-yl]carbamic acid tert-butyl ester]
- IC50 [1]: < 50 nM
- EC50 [2]: < 50 nM

SMILES: COc1ccc2c(O[C@@H]3C[C@H]4C(=O)N[C@]5(C(=O)NS(=O)(=O)C6CCC6)CC5CCCCCCC[C@H](NC(=O)OC(C)(C)C)C(=O)N4C3)cc(-c3ccccc3)nc2c1 (stereo partly drawn) [Compound 19, (1S,4R,6R,14S,18R)-[4-Cyclobutanesulfonylaminocarbonyl-18-(7-methoxy-2-phenylquinolin-4-yloxy)-2,15-dioxo-3,16-diazatricyclo-[14.3.0.0^4,6]nona-dec-14-yl]carbamic acid tert-butyl ester]
- IC50 [1]: < 50 nM
- EC50 [2]: < 50 nM

SMILES: COc1ccc2c(O[C@@H]3C[C@H]4C(=O)N[C@]5(C(=O)NS(=O)(=O)C6CC6)CC5/C=C\CCCCC[C@H](NC(=O)NC(C)(C)C)C(=O)N4C3)cc(-c3ccccc3)nc2c1 (stereo partly drawn) [Compound 20, (1S,4R,6S,14S,18R)-7-cis-Cyclopropanesulfonic acid [14-(3-tert-butylureido)-18-(7-methoxy-2-phenyl-quinolin-4-yloxy)-2,15-dioxo-3,16-diazatricyclo[14.3.0.0^4,6]nona-dec-7-ene-4-carbonyl]amide]
- IC50 [1]: < 50 nM
- EC50 [2]: < 50 nM

SMILES: COc1ccc2c(O[C@@H]3C[C@H]4C(=O)N[C@]5(C(=O)NS(=O)(=O)C6CC6)C[C@H]5/C=C\CCCCC[C@H](NC(=O)OCCF)C(=O)N4C3)cc(-c3ccccc3)nc2c1 [Compound 21, (1S,4R,6S,14S,18R)-7-cis-[4-Cyclopropanesulfonylaminocarbonyl-18-(7-methoxy-2-phenylquinolin-4-yloxy)-2,15-dioxo-3,16-diazatricyclo-[14.3.0.0^4,6]nonadec-7-en-14-yl]carbamic acid 2-fluoroethyl ester]
- IC50 [1]: < 50 nM
- EC50 [2]: < 50 nM
